Test results as given in patent publication EP4722212A1, “NOVEL COMPOUND FOR INHIBITING PROTEIN KINASES AND PHARMACEUTICAL COMPOSITION COMPRISING SAME” (Magicbullettherapeutics Co., Ltd., priority 2023, dated 2024).
Like-named read-outs stand apart in the source and are kept apart here.

Legend:
Experiment in all cases: Kinase panel
Assay type in all cases: biochemical
ACK1 = biological target: T1, ACK1 (Homo sapiens, UniProt Q07912); settings: ACK1, 1 µM; read-out: residual enzyme activity
T1 construct: purchased Reaction Biology (RBC)
In short: (§1)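 1 µM, one concentration only, biochemical panel format. Residual activity computed per kinase; threshold for identification: residual ≤40%.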

ARK5/NUAK1 = ARK5/NUAK1 (Homo sapiens, UniProt O60285); settings: read-out: residual enzyme activity
In short: as §1

AURORA B = AURORA B (Homo sapiens, UniProt Q96GD4); settings: read-out: residual enzyme activity
In short: as §1

CDK5/P25 = CDK5/P25 (Homo sapiens, UniProt Q00535); settings: CDK5/P25, 1 µM; read-out: residual enzyme activity
In short: as §1

CDK7/CYCLIN H = CDK7/CYCLIN H (Homo sapiens, UniProt P50613); settings: read-out: residual enzyme activity
In short: as §1

CSK = CSK (Homo sapiens, UniProt P41240); settings: read-out: residual enzyme activity
In short: as §1

CTK/MATK = CTK/MATK (Homo sapiens, UniProt P42679); settings: read-out: residual enzyme activity
In short: as §1

DYRK2 = DYRK2 (Homo sapiens, UniProt Q92630); settings: DYRK2, 1 µM; read-out: residual enzyme activity
In short: as §1

DYRK3 = DYRK3 (Homo sapiens, UniProt O43781); settings: DYRK3, 1 µM; read-out: residual enzyme activity
In short: as §1

DYRK4 = DYRK4 (Homo sapiens, UniProt Q9NR20); settings: DYRK4, 1 µM; read-out: residual enzyme activity
In short: as §1

ERK7/MAPK15 = ERK7/MAPK15 (Homo sapiens, UniProt Q8TD08); settings: ERK7/MAPK15, 1 µM; read-out: residual enzyme activity
In short: as §1

ERN1/IRE1 = ERN1/IRE1 (Homo sapiens, UniProt O75460); settings: ERN1/IRE1, 1 µM; read-out: residual enzyme activity
In short: as §1

FMS = FMS (Homo sapiens, UniProt P07333); settings: read-out: residual enzyme activity
In short: as §1

GLK/MAP4K3 = GLK/MAP4K3 (Homo sapiens, UniProt Q8IVH8); settings: GLK/MAP4K3, 1 µM; read-out: residual enzyme activity
In short: as §1

GRK1 = GRK1 (Homo sapiens, UniProt Q15835); settings: GRK1, 1 µM; read-out: residual enzyme activity
In short: as §1

GRK6 = GRK6 (Homo sapiens, UniProt P43250); settings: GRK6, 1 µM; read-out: residual enzyme activity
In short: as §1

HGK/MAP4K4 = HGK/MAP4K4 (Homo sapiens, UniProt O95819); settings: HGK/MAP4K4, 1 µM; read-out: residual enzyme activity
In short: as §1

IKKB/IKBKB = IKKB/IKBKB (Homo sapiens, UniProt O14920); settings: read-out: residual enzyme activity
In short: as §1

MAPKAPKS/PRAK = MAPKAPKS/PRAK (Homo sapiens, UniProt Q8IW41); settings: read-out: residual enzyme activity
In short: as §1

MARK3 = MARK3 (Homo sapiens, UniProt P27448); settings: MARK3, 1 µM; read-out: residual enzyme activity
In short: as §1

MARK4 = MARK4 (Homo sapiens, UniProt Q96L34); settings: MARK4, 1 µM; read-out: residual enzyme activity
In short: as §1

MLK2/MAP3K10 = MLK2/MAP3K10 (Homo sapiens, UniProt Q02779); settings: MLK2/MAP3K10, 1 µM; read-out: residual enzyme activity
In short: as §1

NLK = NLK (Homo sapiens, UniProt Q9UBE8); settings: read-out: residual enzyme activity
In short: as §1

P38G = P38G (Homo sapiens, UniProt P53778); settings: read-out: residual enzyme activity
In short: as §1

PAK5 = PAK5 (Homo sapiens, UniProt Q9P286); settings: PAK5, 1 µM; read-out: residual enzyme activity
In short: as §1

PKCETA = PKCETA (Homo sapiens, UniProt P24723); settings: read-out: residual enzyme activity
In short: as §1

PKG2/PRKG2 = PKG2/PRKG2 (Homo sapiens, UniProt Q13237); settings: PKG2/PRKG2, 1 µM; read-out: residual enzyme activity
In short: as §1

SGK2 = SGK2 (Homo sapiens, UniProt Q9HBY8); settings: SGK2, 1 µM; read-out: residual enzyme activity
In short: as §1

SNRK = SNRK (Homo sapiens, UniProt Q9NRH2); settings: read-out: residual enzyme activity
In short: as §1

TRKA = TRKA (Homo sapiens, UniProt P04629); settings: read-out: residual enzyme activity
In short: as §1

TTBK2 = TTBK2 (Homo sapiens, UniProt Q6IQ55); settings: TTBK2, 1 µM; read-out: residual enzyme activity
In short: as §1

WNK1 = WNK1 (Homo sapiens, UniProt Q9H4A3); settings: WNK1, 1 µM; read-out: residual enzyme activity
In short: as §1

YES/YES1 = YES/YES1 (Homo sapiens, UniProt P07947); settings: YES/YES1, 1 µM; read-out: residual enzyme activity
In short: as §1

ZIPK/DAPK3 = ZIPK/DAPK3 (Homo sapiens, UniProt O43293); settings: ZIPK/DAPK3, 1 µM; read-out: residual enzyme activity
In short: as §1

Sequence of DYRK3 (O43781 whole entry, species assumed): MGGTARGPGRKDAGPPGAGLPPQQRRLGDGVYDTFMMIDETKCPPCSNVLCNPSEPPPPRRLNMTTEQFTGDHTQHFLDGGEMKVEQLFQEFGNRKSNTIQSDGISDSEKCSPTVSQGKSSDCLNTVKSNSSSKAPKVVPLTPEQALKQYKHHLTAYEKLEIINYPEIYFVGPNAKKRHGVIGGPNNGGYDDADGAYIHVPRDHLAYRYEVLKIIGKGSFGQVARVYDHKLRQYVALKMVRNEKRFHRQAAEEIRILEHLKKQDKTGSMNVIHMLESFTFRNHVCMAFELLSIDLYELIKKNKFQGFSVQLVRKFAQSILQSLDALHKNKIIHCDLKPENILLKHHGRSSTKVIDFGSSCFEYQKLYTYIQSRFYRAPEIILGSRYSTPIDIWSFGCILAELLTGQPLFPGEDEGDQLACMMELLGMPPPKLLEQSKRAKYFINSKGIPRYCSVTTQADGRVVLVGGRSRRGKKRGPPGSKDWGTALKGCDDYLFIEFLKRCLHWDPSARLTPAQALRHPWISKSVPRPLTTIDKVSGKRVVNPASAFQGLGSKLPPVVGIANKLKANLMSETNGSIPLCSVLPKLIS
Sequence of FMS (P07333 20-972, species assumed): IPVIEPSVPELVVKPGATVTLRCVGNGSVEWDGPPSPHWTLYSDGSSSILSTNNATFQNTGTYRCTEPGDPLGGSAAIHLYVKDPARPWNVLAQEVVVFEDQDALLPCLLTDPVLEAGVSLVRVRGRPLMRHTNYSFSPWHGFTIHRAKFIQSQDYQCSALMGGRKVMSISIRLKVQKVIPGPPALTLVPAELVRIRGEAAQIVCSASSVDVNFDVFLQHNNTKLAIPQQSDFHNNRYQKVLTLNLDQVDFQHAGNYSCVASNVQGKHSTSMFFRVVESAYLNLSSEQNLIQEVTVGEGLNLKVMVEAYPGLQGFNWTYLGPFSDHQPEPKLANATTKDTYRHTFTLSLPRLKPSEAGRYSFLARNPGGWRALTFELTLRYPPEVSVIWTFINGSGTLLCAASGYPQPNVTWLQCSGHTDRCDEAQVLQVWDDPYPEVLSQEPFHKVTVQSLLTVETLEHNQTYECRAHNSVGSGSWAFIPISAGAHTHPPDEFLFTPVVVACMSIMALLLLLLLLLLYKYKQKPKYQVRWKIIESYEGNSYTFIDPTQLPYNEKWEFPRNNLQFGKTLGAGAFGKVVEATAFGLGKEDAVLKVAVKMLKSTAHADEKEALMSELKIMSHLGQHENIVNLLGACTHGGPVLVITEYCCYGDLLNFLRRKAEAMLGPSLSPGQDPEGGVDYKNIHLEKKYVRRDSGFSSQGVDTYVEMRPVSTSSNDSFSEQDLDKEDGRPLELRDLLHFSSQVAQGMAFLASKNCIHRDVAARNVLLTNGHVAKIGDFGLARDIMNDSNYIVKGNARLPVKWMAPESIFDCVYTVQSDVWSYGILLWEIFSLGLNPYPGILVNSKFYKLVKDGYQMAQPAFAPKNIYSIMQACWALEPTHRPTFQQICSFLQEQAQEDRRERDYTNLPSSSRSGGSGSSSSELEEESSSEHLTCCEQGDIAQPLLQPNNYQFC
Sequence of MARK3 (P27448 whole entry, species assumed): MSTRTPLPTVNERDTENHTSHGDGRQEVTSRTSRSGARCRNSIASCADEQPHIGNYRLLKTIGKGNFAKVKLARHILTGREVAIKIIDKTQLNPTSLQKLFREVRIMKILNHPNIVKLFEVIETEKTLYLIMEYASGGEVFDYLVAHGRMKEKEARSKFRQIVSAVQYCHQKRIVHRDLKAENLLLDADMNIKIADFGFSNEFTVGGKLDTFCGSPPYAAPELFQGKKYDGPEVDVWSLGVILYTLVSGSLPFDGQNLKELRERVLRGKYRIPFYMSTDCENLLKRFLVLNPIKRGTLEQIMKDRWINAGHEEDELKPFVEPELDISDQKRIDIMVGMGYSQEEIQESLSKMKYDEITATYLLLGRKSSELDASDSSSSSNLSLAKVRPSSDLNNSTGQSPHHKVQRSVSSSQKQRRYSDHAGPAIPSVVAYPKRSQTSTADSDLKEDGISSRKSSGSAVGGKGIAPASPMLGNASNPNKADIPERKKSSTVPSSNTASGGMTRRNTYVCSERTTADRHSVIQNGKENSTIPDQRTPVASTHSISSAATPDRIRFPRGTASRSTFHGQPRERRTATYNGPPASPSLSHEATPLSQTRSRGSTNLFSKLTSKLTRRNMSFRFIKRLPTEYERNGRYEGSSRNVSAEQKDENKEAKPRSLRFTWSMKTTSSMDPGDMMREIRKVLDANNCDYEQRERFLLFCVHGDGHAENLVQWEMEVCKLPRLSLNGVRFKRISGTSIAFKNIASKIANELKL
T1 sequence (Q07912 whole entry): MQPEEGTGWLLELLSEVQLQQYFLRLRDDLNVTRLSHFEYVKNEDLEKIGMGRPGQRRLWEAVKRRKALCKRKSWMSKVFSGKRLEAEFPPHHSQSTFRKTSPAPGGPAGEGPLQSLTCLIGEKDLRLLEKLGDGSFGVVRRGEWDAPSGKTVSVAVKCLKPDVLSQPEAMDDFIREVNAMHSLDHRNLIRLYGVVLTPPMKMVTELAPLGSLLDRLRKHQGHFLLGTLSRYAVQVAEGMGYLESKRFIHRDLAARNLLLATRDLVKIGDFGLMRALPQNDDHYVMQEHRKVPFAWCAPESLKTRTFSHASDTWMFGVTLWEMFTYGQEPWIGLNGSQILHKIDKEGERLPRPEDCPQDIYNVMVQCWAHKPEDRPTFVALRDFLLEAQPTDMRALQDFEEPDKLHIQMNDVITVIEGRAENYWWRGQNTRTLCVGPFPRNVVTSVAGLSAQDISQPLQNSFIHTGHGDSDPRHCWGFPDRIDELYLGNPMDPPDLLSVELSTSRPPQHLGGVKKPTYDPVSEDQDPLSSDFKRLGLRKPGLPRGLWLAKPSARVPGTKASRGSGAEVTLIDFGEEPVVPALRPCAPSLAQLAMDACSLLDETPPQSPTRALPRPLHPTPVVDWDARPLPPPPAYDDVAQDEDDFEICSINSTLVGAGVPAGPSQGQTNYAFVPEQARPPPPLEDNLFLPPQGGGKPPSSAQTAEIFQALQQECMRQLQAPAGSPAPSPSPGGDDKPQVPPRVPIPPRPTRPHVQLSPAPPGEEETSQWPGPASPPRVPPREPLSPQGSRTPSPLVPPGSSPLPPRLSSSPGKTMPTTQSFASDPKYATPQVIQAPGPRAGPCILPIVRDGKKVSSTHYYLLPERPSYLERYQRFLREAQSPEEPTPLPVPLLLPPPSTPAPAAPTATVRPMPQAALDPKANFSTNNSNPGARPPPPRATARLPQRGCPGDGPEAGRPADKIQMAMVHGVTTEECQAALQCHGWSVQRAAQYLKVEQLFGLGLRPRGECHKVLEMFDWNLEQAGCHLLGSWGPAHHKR
Sequence of PKG2/PRKG2 (Q13237 whole entry): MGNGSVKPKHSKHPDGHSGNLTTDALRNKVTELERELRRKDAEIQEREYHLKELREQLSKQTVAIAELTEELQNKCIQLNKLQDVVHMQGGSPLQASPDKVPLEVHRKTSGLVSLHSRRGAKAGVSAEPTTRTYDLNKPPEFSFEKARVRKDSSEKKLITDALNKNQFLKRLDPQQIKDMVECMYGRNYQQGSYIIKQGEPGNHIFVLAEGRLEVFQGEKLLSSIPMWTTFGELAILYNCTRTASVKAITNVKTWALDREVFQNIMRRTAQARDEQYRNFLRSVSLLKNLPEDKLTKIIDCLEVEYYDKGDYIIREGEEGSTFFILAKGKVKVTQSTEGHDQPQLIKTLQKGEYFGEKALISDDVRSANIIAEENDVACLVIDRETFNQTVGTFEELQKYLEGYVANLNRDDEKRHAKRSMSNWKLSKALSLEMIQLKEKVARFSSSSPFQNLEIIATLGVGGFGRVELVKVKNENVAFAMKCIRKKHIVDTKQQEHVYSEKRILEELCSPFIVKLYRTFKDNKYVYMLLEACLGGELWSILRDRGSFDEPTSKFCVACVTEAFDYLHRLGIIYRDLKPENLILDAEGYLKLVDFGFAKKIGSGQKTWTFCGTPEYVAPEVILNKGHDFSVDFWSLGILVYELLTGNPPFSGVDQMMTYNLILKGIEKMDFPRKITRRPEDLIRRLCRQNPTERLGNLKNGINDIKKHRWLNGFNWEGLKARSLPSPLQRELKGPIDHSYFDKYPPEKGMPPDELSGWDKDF
Sequence of AURORA B (Q96GD4 whole entry): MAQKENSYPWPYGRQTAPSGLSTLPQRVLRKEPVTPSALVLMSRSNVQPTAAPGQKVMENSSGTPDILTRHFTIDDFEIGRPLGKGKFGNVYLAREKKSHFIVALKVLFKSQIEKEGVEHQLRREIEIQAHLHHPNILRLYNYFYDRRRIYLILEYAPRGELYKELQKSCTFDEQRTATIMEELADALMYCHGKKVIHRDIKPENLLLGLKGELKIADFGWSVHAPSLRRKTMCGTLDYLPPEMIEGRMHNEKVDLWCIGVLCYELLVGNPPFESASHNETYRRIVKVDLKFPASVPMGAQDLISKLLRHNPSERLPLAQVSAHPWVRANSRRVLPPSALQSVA
Sequence of ZIPK/DAPK3 (O43293 whole entry): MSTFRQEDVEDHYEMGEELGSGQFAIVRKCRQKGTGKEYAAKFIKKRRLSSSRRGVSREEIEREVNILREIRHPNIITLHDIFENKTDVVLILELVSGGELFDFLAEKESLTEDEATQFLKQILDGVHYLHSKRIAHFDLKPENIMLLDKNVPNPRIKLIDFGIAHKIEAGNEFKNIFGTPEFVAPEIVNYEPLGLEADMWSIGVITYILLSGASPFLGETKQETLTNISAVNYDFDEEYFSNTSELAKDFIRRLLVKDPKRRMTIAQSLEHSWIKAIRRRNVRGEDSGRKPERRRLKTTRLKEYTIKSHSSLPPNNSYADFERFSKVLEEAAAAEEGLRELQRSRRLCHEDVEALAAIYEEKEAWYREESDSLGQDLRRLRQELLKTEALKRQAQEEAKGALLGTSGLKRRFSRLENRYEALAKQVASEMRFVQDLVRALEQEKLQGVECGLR

Structure (SMILES)	remaining activity at 1 µM (ACK1) [%]	remaining activity at 1 µM (AURORA B) [%]	remaining activity at 1 µM (CDK5/P25) [%]	remaining activity at 1 µM (CDK7/CYCLIN H) [%]	remaining activity at 1 µM (CSK) [%]	remaining activity at 1 µM (CTK/MATK) [%]	remaining activity at 1 µM (DYRK2) [%]	remaining activity at 1 µM (DYRK3) [%]	remaining activity at 1 µM (DYRK4) [%]	remaining activity at 1 µM (ERK7/MAPK15) [%]	remaining activity at 1 µM (ERN1/IRE1) [%]	remaining activity at 1 µM (FMS) [%]	remaining activity at 1 µM (GLK/MAP4K3) [%]	remaining activity at 1 µM (GRK1) [%]	remaining activity at 1 µM (GRK6) [%]	remaining activity at 1 µM (HGK/MAP4K4) [%]	remaining activity at 1 µM (IKKB/IKBKB) [%]	remaining activity at 1 µM (MAPKAPKS/PRAK) [%]	remaining activity at 1 µM (MARK3) [%]	remaining activity at 1 µM (MARK4) [%]	other results
Cc1cn(-c2cc(C(=O)Nc3ccc(C)c(N4Cc5cnc(NC6CC6)nc5C5(CC5)C4=O)c3)cc(C(F)(F)F)c2)cn1 [Compound 8, N-(3-(2'-(cyclopropylamino)-7'-oxo-5'H-spiro[cyclopropane-1,8'-pyrido[4,3-d]pyrimidine]-6'(7'H)-yl)-4-methylphenyl)-3-(4-methyl-1H-imidazol-1-yl)-5-(trifluoromethyl)benzamide]	≤ 40	> 40	> 40	> 40	≤ 40	> 40	> 40	> 40	> 40	> 40	> 40	≤ 40	≤ 40	> 40	> 40	≤ 40	> 40	> 40	> 40	> 40	remaining activity at 1 µM (ARK5/NUAK1; ARK5/NUAK1, 1 µM): > 40%; remaining activity at 1 µM (MLK2/MAP3K10): > 40%; remaining activity at 1 µM (NLK): > 40%; remaining activity at 1 µM (P38G; P38G): > 40%; remaining activity at 1 µM (PAK5): > 40%; remaining activity at 1 µM (PKCETA): > 40%; remaining activity at 1 µM (PKG2/PRKG2): > 40%; remaining activity at 1 µM (SGK2): > 40%; remaining activity at 1 µM (SNRK): > 40%; remaining activity at 1 µM (TRKA): ≤ 40%; remaining activity at 1 µM (TTBK2): > 40%; remaining activity at 1 µM (WNK1): > 40%; remaining activity at 1 µM (YES/YES1): ≤ 40%; remaining activity at 1 µM (ZIPK/DAPK3): > 40%
Cc1ccc(Nc2ncc3c(n2)C2(CC2)C(=O)N(c2cc(NC(=O)c4cccc(C(F)(F)F)c4)ccc2C)C3)cn1 [Compound 51, N-(4-methyl-3-(2'-((6-methylpyridin-3-yl)amino)-7'-oxo-5'H-spiro[cyclopropane-1,8'-pyrido[4,3-d]pyrimidine]-6'(7'H)-yl)phenyl)-3-(trifluoromethyl)benzamide]	≤ 40	> 40	> 40	> 40	≤ 40	> 40	> 40	> 40	> 40	> 40	> 40	≤ 40	≤ 40	> 40	> 40	≤ 40	> 40	> 40	> 40	> 40	remaining activity at 1 µM (ARK5/NUAK1; ARKS/NUAKl, 1 µM): > 40%; remaining activity at 1 µM (MLK2/MAP3K10): ≤ 40%; remaining activity at 1 µM (NLK): > 40%; remaining activity at 1 µM (P38G; P38g): > 40%; remaining activity at 1 µM (PAK5): > 40%; remaining activity at 1 µM (PKCETA): > 40%; remaining activity at 1 µM (PKG2/PRKG2): > 40%; remaining activity at 1 µM (SGK2): > 40%; remaining activity at 1 µM (SNRK): > 40%; remaining activity at 1 µM (TRKA): ≤ 40%; remaining activity at 1 µM (TTBK2): > 40%; remaining activity at 1 µM (WNK1): > 40%; remaining activity at 1 µM (YES/YES1): ≤ 40%; remaining activity at 1 µM (ZIPK/DAPK3): > 40%
